The results in this text go back to the supplement of paper PMC11061612.

Holding throughout (assay): Bliss excess, mean over the matrix (fraction); higher = more synergy
In experiment [1] the test system is EJM (Plasma Cell Myeloma). Summed up:
(§1)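 After 24 hours at 37°C and 5% CO2 in 1536-well plates, cells in DMEM/F12 or RPMI plus 10% FBS received two-drug dose matrices for 72 hours. Viability came from CellTiter-Glo 2.0 luminescence and was scaled as inhibition, anchored at 0 by vehicle wells and at 1 by blank wells. Combination Emax is taken as the second-highest inhibition in the matrix, and Bliss excess as the observed combination effect less EA + EB − EA·EB, with EA and EB the single-agent effects.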

The subject of experiment [2] is DU-145 (Prostate Carcinoma). Summed up: as §1
For experiment [3], the system named is NCI-H1355 (Lung Adenocarcinoma). Summed up: as §1
The test system of experiment [4] is EFO-21 (Ovarian Carcinoma). Summed up: as §1
Experiment [5] deals with ML-2 (Acute Myeloid Leukemia). Summed up: as §1
Experiment [6] deals with HCC1937 (Breast Carcinoma). The method in brief: as §1
The test system of experiment [7] is Mo-T (Other Blood Carcinomas). The method in brief: as §1
Experiment [8] relates to KMRC-1 (Kidney Carcinoma). The method in brief:
as §1

Experiment [9] deals with MOLT-4 (T-Lymphoblastic Leukemia). The method in brief: as §1
Experiment [10] relates to SK-N-AS (Neuroblastoma). Summed up: as §1
The test system of experiment [11] is EW-1 (Ewing's Sarcoma). The method in brief:
as §1

For experiment [12], the system named is MDA-MB-453 (Breast Carcinoma). Summed up:
as §1

The subject of experiment [13] is OE33 (Esophageal Adenocarcinoma). The method in brief: as §1
The subject of experiment [14] is NCI-H1993 (Lung Adenocarcinoma). The method in brief:
as §1

Experiment [15] concerns NCI-H522 (Lung Adenocarcinoma). Summed up: as §1
Experiment [16] relates to SW982 (Other Solid Carcinomas). Summed up:
as §1

Experiment [17] relates to NCI-H1092 (Small Cell Lung Carcinoma). The method in brief:
as §1

In experiment [18] the test system is HCC1500 (Breast Carcinoma). The method in brief: as §1
Experiment [19] has as its system ME-180 (Cervical Carcinoma). Summed up: as §1
Experiment [20] concerns MV-4-11 (Acute Myeloid Leukemia). The method in brief:
as §1

Turning to `NC1(C(=O)N[C@@H](CCO)c2ccc(Cl)cc2)CCN(c2ncnc3[nH]ccc23)CC1` [Capivasertib] + COc1nnc2ccc(N3CCC(c4ccc(OCCN5CCN(C)C(=O)[C@H]5C)cc4)CC3)nn12 [AZD5153] (first compound max 10 µM, 7x7, partner max 1 µM), the Bliss excess was 0.0732 in [1]; 0.0276 in [2]; 0.0316 in experiment [3]; -0.046 in [4]; -0.0187 in experiment [5]; 0.0189 in experiment [6]. In addition, the Bliss excess in experiment [7] is -0.0717; in experiment [8], 0.0129; in [9], 0.0908; in experiment [10], -0.0159; in experiment [11] it was 0.0867; in [12] it was -0.0148. The Bliss excess in [13] is 0.0052; in [14] it was 0.0372; in experiment [15], -0.0698; in [16], -0.0535; in [17] it was -0.0087; in experiment [18], 0.0118. Moreover, the Bliss excess in experiment [19] was -0.051; in experiment [20], 0.0074.
Consider `NC1(C(=O)N[C@@H](CCO)c2ccc(Cl)cc2)CCN(c2ncnc3[nH]ccc23)CC1` [Capivasertib] + C[C@@H]1COCCN1C2=NC(=NC(=C2)C3(CC3)[S@](=N)(=O)C)C4=C5C=CNC5=NC=C4 [AZD6738] (first compound max 10 µM, 7x7, partner max 10 µM), for which the Bliss excess in experiment [1] was 0.0305; in experiment [2], -0.0128; in experiment [3], -0.0317; in experiment [4], -0.0322; in experiment [5], -0.0241; in experiment [6], -0.0142. For the same molecule, the Bliss excess was 0.0465 in experiment [7]; -0.0504 in experiment [8]; 0.0011 in experiment [9]; -0.0469 in [10]; 0.0229 in [11]; -0.0798 in experiment [12]. The Bliss excess in experiment [13] was -0.0225; in [14], -0.0598; in [15], -0.0483; in experiment [16], -0.0382; in experiment [17], -0.0055; in experiment [18] it was 0.0226. Moreover, the Bliss excess in [19] was -0.066; in experiment [20] it was -0.0546.
Regarding `NC1(C(=O)N[C@@H](CCO)c2ccc(Cl)cc2)CCN(c2ncnc3[nH]ccc23)CC1` [Capivasertib] + Cn1cnc2c(F)c(Nc3ccc(Br)cc3Cl)c(C(=O)NOCCO)cc21 [Selumetinib] (first compound max 10 µM, 7x7, partner max 10 µM), the Bliss excess in [1] is 0.08; in [2] it was 0.0037; in [3], 0.0132; in experiment [4] it was -0.0352; in experiment [5], 0.0654; in experiment [6], -0.0079. Moreover, the Bliss excess in experiment [7] was found to be 0.0563; in [8], 0.0071; in experiment [9], 0.0752; in [10], 0.0046; in experiment [11] it was 0.0819; in experiment [12], 0.0079. For the same molecule, the Bliss excess is 0.0301 in [13]; 0.0372 in [14]; -0.0098 in [15]; 0.0235 in experiment [16]; -0.0225 in experiment [17]; 0.0004 in [18]. For the same molecule, the values for the Bliss excess in [19] and in experiment [20] were -0.0232 and 0.0842, respectively.
For `COc1cccc2c1C(=O)c1c(O)c3c(c(O)c1C2=O)C[C@@](O)(C(=O)CO)C[C@@H]3O[C@H]1C[C@H](N)[C@H](O)[C@H](C)O1` [Doxorubicin] + Cc1cc2ncnn2cc1Nc1ncc2c(n1)n(C1CCOCC1)c(=O)n2C [AZD7648] (first compound max 1 µM, 7x7, partner max 10 µM), the Bliss excess was 0.0833 in experiment [1]; 0.0052 in experiment [2]; 0.0337 in experiment [3]; -0.03 in experiment [4]; 0.0281 in experiment [5]; 0.005 in [6]. The Bliss excess in experiment [7] was 0.0096; in experiment [8], 0.0835; in experiment [9] it was 0.135; in [10], 0.0664; in [11] it was 0.126; in experiment [12], 0.0432. The Bliss excess is 0.0114 in experiment [13]; -0.0182 in experiment [14]; 0.0072 in experiment [15]; 0.0226 in experiment [16]; -0.0037 in experiment [17]; 0.0605 in [18]. For the same molecule, the results for the Bliss excess in experiment [19] and in experiment [20] were 0.0438 and 0.137, respectively.
Turning to `CS(=O)(=O)CCNCc1ccc(-c2ccc3ncnc(Nc4ccc(OCc5cccc(F)c5)c(Cl)c4)c3c2)o1` [Lapatinib] + C[C@@H](Oc1cc(-c2cnn(C3CCNCC3)c2)cnc1N)c1c(Cl)ccc(F)c1Cl [Crizotinib] (first compound max 10 µM, 7x7, partner max 10 µM), the Bliss excess in [1] is -0.0001; in [2] it was -0.0242; in experiment [3] it was -0.0141; in [4], -0.0148; in [5], -0.0133; in [6] it was -0.0404. The Bliss excess is -0.0658 in experiment [7]; -0.0725 in experiment [8]; -0.0084 in [9]; -0.0676 in experiment [10]; -0.0239 in experiment [11]; 0.0232 in [12]. Further, the Bliss excess is 0.151 in [13]; 0.0268 in [14]; -0.0362 in experiment [15]; -0.0579 in experiment [16]; 0.0103 in experiment [17]; 0.0412 in [18]. Besides, the figures for the Bliss excess in [19] and in [20] were -0.0227 and -0.0106, respectively.
`CC(=O)c1c(C)c2cnc(Nc3ccc(N4CCNCC4)cn3)nc2n(C2CCCC2)c1=O` [Palbociclib] + CC1(C)CCC(CN2CCN(c3ccc(C(=O)NS(=O)(=O)c4ccc(NCC5CCOCC5)c([N+](=O)[O-])c4)c(Oc4cnc5[nH]ccc5c4)c3)CC2)=C(c2ccc(Cl)cc2)C1 [Venetoclax] (first compound max 10 µM, 7x7, partner max 1 µM): the Bliss excess is -0.0211 in experiment [1]; -0.0406 in experiment [2]; -0.0031 in [3]; -0.0638 in experiment [4]; 0.0634 in [5]; -0.0578 in experiment [6]. For the same molecule, the Bliss excess was -0.0648 in experiment [7]; -0.0653 in [8]; -0.0654 in experiment [9]; -0.0354 in experiment [10]; 0.0441 in experiment [11]; 0.0091 in experiment [12]. Besides, the Bliss excess in experiment [13] is -0.0458; in experiment [14], 0.0108; in experiment [15] it was -0.0428; in experiment [16], -0.0508; in [17], -0.0224; in [18] it was -0.0899. Also, the Bliss excess is -0.0622 in [19] and -0.0213 in [20].
`CC(=O)c1c(C)c2cnc(Nc3ccc(N4CCNCC4)cn3)nc2n(C2CCCC2)c1=O` [Palbociclib] + Cc1c2c(nn1C)CSCc1cc(n(C)n1)CSc1cc(c3ccccc3c1)OCCCc1c(C(=O)O)n(C)c3c-2c(Cl)ccc13 [AZD5991] (first compound max 10 µM, 7x7, partner max 1 µM): the Bliss excess in experiment [1] is -0.0517; in experiment [2], -0.0216; in experiment [3], -0.0147; in [4] it was -0.0458; in [5] it was 0.0133; in [6], -0.0498. Moreover, the Bliss excess in experiment [7] is -0.0208; in experiment [8] it was -0.0363; in [9] it was -0.0073; in experiment [10], -0.006; in [11], 0.0294; in [12], -0.0218. The Bliss excess in [13] was -0.0041; in experiment [14] it was 0.0186; in experiment [15] it was -0.0258; in experiment [16], -0.0151; in experiment [17], -0.0646; in [18] it was -0.0145. Moreover, the figures for the Bliss excess in [19] and in experiment [20] were -0.0545 and 0.0127, respectively.
